Reference: PMC9139161, “Phenolics from Chrozophora oblongifolia Aerial Parts as Inhibitors of α-Glucosidases and Advanced Glycation End Products: In-Vitro Assessment, Molecular Docking and Dynamics Studies” (Biology, 2022)
pIC50: −log10 of the molar value. “And” between values parts separate entries of the source, which are not always exact repeats. Identical values can stand only once.

What was measured:
[1] = system: advanced glycation end products (AGEs) formation, BSA-methylglyoxal model; assay: AGEs formation inhibition, BSA-methylglyoxal assay; format: biochemical; conditions: AGEs fluorescence, 72 h, 37 °C; read-out: BSA-Methylglyoxal Model IC50 (Mean ± SE)
Procedure: (§1) The isolated compounds were prepared at final concentrations of 500 µM in DMSO in the BSA-fructose assay, and 1000 µM in all other AGEs assays. Compounds that exceeded 50% inhibition at this concentration were serially diluted to determine their IC50. All tests were conducted using quercetin (positive control).
AGEs inhibitory activity of the isolated compounds was determined according to the reported procedures with slight modification. Briefly, in black 96-microwell plates, samples were incubated for 72 h at 37 °C in the dark with bovine serum albumin (BSA, 50 mg/mL) (in 200 mM phosphate buffer, pH 7.4, with 0.02% sodium azide) and methyl-glyoxal (53.3 mM, in distilled water), (1:1:1 v/v/v). On a microplate reader (Fluostar Omega/BMG Labtech/Germany), fluorescent AGEs were detected using excitation and emission wavelengths of 355 nm and 460 nm, respectively. Triplicates of all experiments were performed.

[2] = Oxygen radical absorbance capacity (ORAC) assay; conditions: Trolox equivalents
Procedure: Isolated compounds were dissolved in DMSO to prepare a concentration of 0.25 mg/mL, meanwhile, the positive control (Trolox) was used to prepare a stock solution of 1 mM in MeOH; from which nine concentrations were prepared including 400, 300, 200, 150, 100, 75, 50, 25, and 12.5 µM to construct the dose-response curve. The assay was carried out as previously reported, with minor modifications. Briefly, 12.5 µL of the prepared sample(s) were incubated with 75 µL fluoresceine (10 nM) for 30 min at 37 °C. Measuring fluorescence was performed (520 EM, 485 EX, nm) for 3 cycles (90 s cycle time) for background measurement (Supplementary Figure S5). Subsequently, to each well, freshly-made AAPH (2,2′-azobis(2-amidinopropane) dihydrochloride) (12.5 µL, 240 mM) was immediately added. Measuring fluorescence (520 EM, 485 EX, nm) was maintained (90 s × 85 cycles) for 2.5 h (Supplementary Figure S5). The antioxidant potential (µM trolox equivalents) was estimated by substituting in the linear-regression equation.

[3] = Metal chelation assay (ferrozine); conditions: EDTA equivalents; mean ± SD
Procedure: Isolated compounds were dissolved in DMSO to prepare a concentration of 0.5 mg/mL, meanwhile, the positive control (EDTA) was used to prepare a stock solution of 100 µM in water; from which six concentrations were prepared including 5, 10, 20, 40, 50 and 80 µM to construct the dose-response curve. The assay was carried out as previously reported, with minor modifications. Briefly, in 96 wells plate (n = 6) 20 µL of the freshly prepared ferrous sulfate (0.3 mM) was mixed with 50 µL of the tested compound and incubated with 30 µL of ferrozine (0.8 mM) for 10 min at room temperature. Finally, reduction in color intensity was assessed at 540 nm using a microplate reader (Tecan, San Jose, CA, USA). Data are represented as means (n = 3) ± SD and the antioxidant effect of the extracts was calculated as µM EDTA equivalents by substitution in the linear regression equation (Supplementary Figure S4).

DPPH assay = conditions: read-out: DPPH assay IC50 (Mean ± SE)
Procedure: Isolated compounds were prepared in final concentrations of 1000 µM in DMSO. Compounds that exceeded 50% inhibition at this concentration were serially diluted to determine their IC50. Ascorbic acid was used as a positive control, prepared in a concentration of 100 µM in water from which six concentrations were prepared to calculate its IC50. The method is based on the reduction of free radical of 2,2-diphenyl-1-picrylhydrazyl (DPPH). Briefly, in a 96-well plate, 20 μL of the isolated compound was incubated for 20 min in the absence of light with 180 μL of DPPH reagent (100 μM). The reduction of intensity in the color of DPPH was assessed on a microplate reader (TECAN, Männedorf, Switzerland) at 540 nm (Supplementary Table S2).

[4] = system: advanced glycation end products (AGEs) formation, arginine-methylglyoxal model; assay: AGEs formation inhibition, arginine-methylglyoxal assay; format: biochemical; conditions: AGEs fluorescence, 72 h, 37 °C; read-out: Arginine-Methylglyoxal Model IC50 (Mean ± SE)
Procedure: as §1
The determination of the inhibitory effect of the isolated compounds on the formation of AGEs in the arginine methylglyoxal model was used as described previously with slight modification. Briefly, in black 96-microwell plates, a sample was incubated for 72 h at 37 °C in the dark with methylglyoxal (53.3 mM, in distilled water) and 106.6 mM arginine (in 200 mM phosphate buffer, pH 7.4, with 0.02% sodium azide), (1:1:1 v/v/v). On a microplate reader (Fluostar Omega/BMG Labtech/Germany), fluorescent AGEs were detected using excitation and emission wavelengths of 355 nm and 460 nm, respectively. Triplicates of all experiments were performed.

| Compound | pIC50 [1] | pIC50 (DPPH assay) | pIC50 [4] | ORAC assay [2] | Metal chelation [3] |
| --- | --- | --- | --- | --- | --- |
| C[C@@H]1O[C@@H](OC[C@H]2O[C@@H](Oc3c(-c4ccc(O)c(O)c4)oc4cc(O)cc(O)c4c3=O)[C@H](O)[C@@H](O)[C@@H]2O)[C@H](O)[C@H](O)[C@H]1O [Compound 4, rutin] | 3.31 | 4.72 | 3.52 | 2.164±0.096 mM TE/mg and 2.16 mM TE/mg | 28.96±2.07 µM EDTA eq/mg and 28.96 µM EDTA eq/mg |
| O=C(OC[C@H]1O[C@H](OC(=O)c2cc(O)c(O)c(O)c2)[C@H](O)[C@@H](OC(=O)c2cc(O)c(O)c(O)c2)[C@@H]1O)c1cc(O)c(O)c(O)c1 (stereo in doubt) [Compound 5, 1,3,6-trigalloyl glucose] | 3.18 | 5.40 | 3.65 | 1.119±0.116 mM TE/mg and 1.11 mM TE/mg | 17.52±2.43 µM EDTA eq/mg and 17.52 µM EDTA eq/mg |
| O=c1cc(-c2ccc(O)cc2)oc2cc(O[C@@H]3O[C@H](CO)[C@@H](O)[C@H](O)[C@H]3O)cc(O)c12 [Compound 1, apeginin-7-O-β-D-glucoside] | 3.18 | 3.44 | 3.32 | 1.092±0.067 mM TE/mg and 1.09 mM TE/mg | 19.26±1.52 µM EDTA eq/mg and 19.26 µM EDTA eq/mg |

The next lines start with results.

| pIC50 [1] | pIC50 (DPPH assay) | pIC50 [4] | Compound | ORAC assay [2] | Metal chelation [3] |
| --- | --- | --- | --- | --- | --- |
| < 2.92 | 3.91 | < 2.92 | O=C(O)[C@H]1O[C@@H](Oc2c(-c3ccc(O)c(O)c3)oc3cc(O)cc(O)c3c2=O)[C@H](O)[C@@H](O)[C@H]1O [Compound 3, quercetin-3-O-β-D-galacturonic acid] | 0.538±0.015 mM TE/mg and 0.54 mM TE/mg | 28.26±0.78 µM EDTA eq/mg and 28.26 µM EDTA eq/mg |
| 2.73 | 4.54 | 2.94 | O=C(O)[C@H]1O[C@@H](Oc2c(-c3ccc(O)c(O)c3)oc3cc(O)cc(O)c3c2=O)[C@H](O)[C@@H](O)[C@@H]1O [Compound 2, quercetin-3-O-β-D-glucuronic acid] | 0.739±0.098 mM TE/mg and 0.74 mM TE/mg | 8.29±0.05 µM EDTA eq/mg and 8.29 µM EDTA eq/mg |
